According to patent US20100119599A1 (ARCHER PHARMACEUTICALS, INC., priority 2006, published 2010):
Where two headings read alike, the source gives them in different places.

How the values were obtained:
[1] = test system: Aβ1-42; test: Measurement of Aβ1-42 in culture medium of 7W WT APP751 CHO cells by ELISA; type: cell-based, Chinese hamster; details: for Aβ1-42 (% of control): CHO cells that overexpress APP751, zero = below the detection limit of the assay; for activity at 5 µM: Cricetulus griseus, 5 μM test compound, CHO cells stably transfected with human APP751, culture medium, ELISA, control DMSO;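 on Aβ1-42 (% of control): 5 µM test compound but RI-coded compounds at 10 µM for 24 hours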
[2] = test system: Aβ1-40; test: Measurement of Aβ1-40 in culture medium of 7W WT APP751 CHO cells by ELISA; type: cell-based, Chinese hamster; details: for Aβ1-40 (% of control): CHO cells that overexpress APP751, zero = below the detection limit of the assay; for activity at 5 µM: Cricetulus griseus, 5 μM test compound, CHO cells stably transfected with human APP751, culture medium, ELISA, control DMSO;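 on all read-outs here: 5 µM test compound but RI-coded compounds at 10 µM for 24 hours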
[3] = Table 1, 0 = no detectable amount, read-out: Aβ1-42 (% of control)
[4] = Table 1, 0 = no detectable amount

## CC1=C(C(=O)Nc2ccc(Cl)cc2)C(c2cccs2)C(C#N)=C(SCC(=O)Nc2cccc(C)c2)N1 (stereo not drawn) [RI_10]
[1]
  Aβ1-42 (% of control): 70.6 % of control
[2]
  Aβ1-40 (% of control): 78.8 % of control

## CCCOC(=O)C1=C(C)NC2=C(C(=O)CC(C)(C)C2)C1c1cccc(Cl)c1Cl (stereo not drawn) [ST013206, propyl 4-(2,3-dichiorophenyl)-2,7,7-trimethyl-5-oxo-1,4,6,7,8-pentahydroquinoline-3-carboxylate]
[1]; [3]
  activity at 5 µM: 62.5%
[2]; [4]
  activity at 5 µM: 0%

## N#CC1=C(N)n2c(s/c(=C/c3ccc(Cl)cc3Cl)c2=O)=C(C#N)C1c1ccc(Cl)cc1Cl (stereo not drawn) [ST003360, 5-amino-7-(2,4-dichlorophenyl)-2-[(2,4-dichlorophenyl)methylene]-3-oxo-4,7-dihydro-1,3-thiazolidino[3,2-a]pyridine-6,8-dicarbonitrile]
[1]
  Aβ1-42 (% of control): 72.55 % of control
[2]
  Aβ1-40 (% of control): 63.37 % of control

## CC1=C(C(=O)OCC(C)C)C(c2ccc(OCc3ccccc3)cc2)C2=C(CCCC2=O)N1 (stereo not drawn) [ST017342, 2-methylpropyl 2-methyl-5-oxo-4-[4-(phenylmethoxy)phenyl]-1,4,6,7,8-pentahydroquinoline-3-carboxylate]
[1]; [3]
  activity at 5 µM: 93.5%
[2]; [4]
  activity at 5 µM: 28.8%

## COC(=O)C1=CN(CC2CCCO2)C=C(C(=O)OC)C1c1cccc(OC)c1OC (stereo not drawn) [ST051459, methyl 4-(2,3-dimethoxyphenyl)-5-(methoxycarbonyl)-1-(oxolan-2-ylmethyl)-1,4-dihydropyridine-3-carboxylate]
[1]
  Aβ1-42 (% of control): 85.96 % of control
[2]
  Aβ1-40 (% of control): 70.09 % of control

## CC1=C(C(=O)OCCOc2ccccc2)C(c2ccc(C)s2)C2=C(CCCC2=O)N1 (stereo not drawn) [ST052280, 2-phenoxyethyl 2-methyl-4-(5-methyl(2-thienyl))-5-oxo-1,4,6,7,8-pentahydroquinoline-3-carboxylate]
[1]; [3]
  activity at 5 µM: 37.7%
[2]; [4]
  activity at 5 µM: 73.6%

## CCOC(=O)C1=C(C)NC(C)=C(C(=O)OCC)C1C(=O)O [ST007544, 3,5-bis(ethoxycarbonyl)-2,6-dimethyl-1,4-dihydropyridine-4-carboxylic acid]
[1]; Table 3, read-out: Aβ-42 (% of control)
  activity at 5 µM: 80.1%
[2]; Table 3
  activity at 5 µM: 78.7%

## CCCCOC(=O)C1=C(C)NC2=C(C(=O)CC(C)(C)C2)C1c1cccc(Cl)c1Cl (stereo not drawn) [ST013239, butyl 4-(2,3-dichlorophenyl)-2,7,7-trimethyl-5-oxo-1,4,6,7,8-pentahydroquinoline-3-carboxylate]
[1]; [3]
  activity at 5 µM: 59.5%
[2]; [4]
  activity at 5 µM: 0%

## CCOC(=O)C1=C(C)NC2=C(C(=O)CCC2)C1c1cccc(O)c1 (stereo not drawn) [ST013148, ethyl 4-(3-hydroxyphenyl)-2-methyl-5-oxo-1,4,6,7,8-pentahydroquinoline-3-carboxylate]
[1]; [3]
  activity at 5 µM: 49.9%
[2]; [4]
  activity at 5 µM: 66.1%

## CC1=C(C(=O)OC2CCCC2)C(c2ccc(C)s2)C2=C(CCCC2=O)N1 (stereo not drawn) [ST052262, cyclopentyl 2-methyl-4-(5-methyl(2-thienyl))-5-oxo-1,4,6,7,8-pentahydroquinoline-3-carboxylate]
[1]; [3]
  activity at 5 µM: 19.7%
[2]; [4]
  activity at 5 µM: 13.2%

## CCOC(=O)C1=C(C)NC(C)=C(C(=O)OCC)C1c1cccc(NC(=O)C(F)(F)F)c1 [ST003836, ethyl 5-(ethoxycarbonyl)-2,6-dimethyl-4-[3-(2,2,2-trifluoroacetylamino)phenyl]-1,4-dihydropyridine-3-carboxylate]
[1]
  Aβ1-42 (% of control): 83.98 % of control
[2]
  Aβ1-40 (% of control): 45.34 % of control

## COC(=O)C1=C(C)NC2=C(C(=O)CC(C)(C)C2)C1c1ccc(C(F)(F)F)cc1 (stereo not drawn) [ST052359, methyl 2,7,7-trimethyl-5-oxo-4-[4-(trifluoromethyl)phenyl]-1,4,6,7,8-pentahydroquinoline-3-carboxylate]
[1]; [3]
  activity at 5 µM: 29.5%
[2]; [4]
  activity at 5 µM: 31%

## CC1=C(C(=O)OC(C)(C)C)C(c2ccc(Cl)cc2)C(C#N)=C(SCC(=O)Nc2ccc(C)cc2)N1 (stereo not drawn) [ST051142, tert-butyl 4-(4-chlorophenyl)-5-cyano-2-methyl-6-{[N-(4-methylphenyl)carbamoyl]methylthio}-1,4-dihydropyridine-3-carboxylate]
[1]
  Aβ1-42 (% of control): 46.06 % of control
[2]
  Aβ1-40 (% of control): 94.85 % of control

## CC1=C(C(=O)OCC2CCCO2)C(c2cccc(Cl)c2)C2=C(CC(C)(C)CC2=O)N1 (stereo not drawn) [ST017242, oxolan-2-ylmethyl 4-(3-chlorophenyl)-2,7,7-trimethyl-5-oxo-1,4,6,7,8-pentahydroquinoline-3-carboxylate]
[1]; [3]
  activity at 5 µM: 0%
[2]; [4]
  activity at 5 µM: 49.6%

## CCSCCOC(=O)C1=C(C)NC2=C(C(=O)CC(c3ccccc3)C2)C1c1ccc(Br)cc1 (stereo not drawn) [ST017201, 2-ethylthioethyl 4-(4-bromophenyl)-2-methyl-5-oxo-7-phenyl-1,4,6,7,8-pentahydroquinoline-3-carboxylate]
[1]; [3]
  activity at 5 µM: 85.2%
[2]; [4]
  activity at 5 µM: 57.5%

## CCCCOC(=O)C1=C(C)NC2=C(C(=O)CCC2)C1c1ccccc1OC (stereo not drawn) [ST013324, butyl 4-(2-methoxyphenyl)-2-methyl-5-oxo-1,4,6,7,8-pentahydroquinoline-3-carboxylate]
[1]; [3]
  activity at 5 µM: 93.7%
[2]; [4]
  activity at 5 µM: 54.3%

## COc1ccc(/C=c2\sc3n(c2=O)C(N)=C(C#N)C(c2ccc(OC)cc2OC)C=3C#N)c(OC)c1 (stereo not drawn) [ST025017, 5-amino-7-(2,4-dimethoxyphenyl)-2-[(2,4-dimethoxyphenyl)methylene]-3-oxo-4,7-dihydro-1,3-thiazolidino[3,2-a]pyridine-6,8-dicarbonitrile]
[1]
  Aβ1-42 (% of control): 72.39 % of control
[2]
  Aβ1-40 (% of control): 64.54 % of control

## COc1cc(C2C(C(=O)OCCOc3ccccc3)=C(C)NC3=C2C(=O)CC(C)(C)C3)ccc1OCc1ccccc1 (stereo not drawn) [ST015071, 2-phenoxyethyl 4-[3-methoxy-4-(phenylmethoxy)phenyl]-2,7,7-trimethyl-5-oxo-1,4,6,7,8-pentahydroquinoline-3-carboxylate]
[1]; [3]
  activity at 5 µM: 88.3%
[2]; [4]
  activity at 5 µM: 60.8%

## CSc1ccc(C2C(C(=O)OCCOc3ccccc3)=C(C)NC3=C2C(=O)CCC3)cc1 (stereo not drawn) [ST015072, 2-phenoxyethyl 2-methyl-4-(4-methylthiophenyl)-5-oxo-1,4,6,7,8-pentahydroquinoline-3-carboxylate]
[1]; [3]
  activity at 5 µM: 59.4%
[2]; [4]
  activity at 5 µM: 19.3%

## CCOC(=O)C1=CN(c2cc(C)ccc2C)C=C(C(=O)OCC)C1c1ccccc1OCC [ST052488, ethyl 1-(2,5-dimethylphenyl)-5-(ethoxycarbonyl)-4-(2-ethoxyphenyl)-1,4-dihydropyridine-3-carboxylate]
[1]
  Aβ1-42 (% of control): 57.75 % of control
[2]
  Aβ1-40 (% of control): 60.3 % of control

## COC(=O)C1=C(C)NC2=C(C(=O)CC(c3ccc(OC)c(OC)c3)C2)C1c1cc(OC)c(OC)c(OC)c1 (stereo not drawn) [ST024574, methyl 7-(3,4-dimethoxyphenyl)-2-methyl-5-oxo-4-(3,4,5-trimethoxyphenyl)-1,4,6,7,8-pentahydroquinoline-3-carboxylate]
[1]; [3]
  activity at 5 µM: 83.6%
[2]; [4]
  activity at 5 µM: 65.3%

## CCCCCOC(=O)C1=C(C)NC2=C(C(=O)CCC2)C1c1cccc(O)c1 (stereo not drawn) [ST017336, pentyl 4-(3-hydroxyphenyl)-2-methyl-5-oxo-1,4,6,7,8-pentahydroquinoline-3-carboxylate]
[1]; [3]
  activity at 5 µM: 72.7%
[2]; [4]
  activity at 5 µM: 62.9%

## CCc1ccc(C2C(C(=O)OCC(C)C)=C(C)NC3=C2C(=O)CC(c2ccccc2)C3)cc1 (stereo not drawn) [ST016970, 2-methylpropyl 4-(4-ethylphenyl)-2-methyl-5-oxo-7-phenyl-1,4,6,7,8-pentahydroquinoline-3-carboxylate]
[1]; [3]
  activity at 5 µM: 27.8%
[2]; [4]
  activity at 5 µM: 27.7%

## CC1=C(C(=O)OCCc2ccccc2)C(c2ccccc2C(F)(F)F)C2=C(CCCC2=O)N1 (stereo not drawn) [ST052228, 2-phenylethyl 2-methyl-5-oxo-4-[2-(trifluoromethyl)phenyl]-1,4,6,7,8-pentahydroquinoline-3-carboxylate]
[1]; [3]
  activity at 5 µM: 36.9%
[2]; [4]
  activity at 5 µM: 60.4%

## COC(=O)C1=C(C)NC2=C(C(=O)CC(C)(C)C2)C1c1ccc(OCc2cccc(Cl)c2)c(OC)c1 (stereo not drawn) [ST028592, methyl 4-{4-[(3-chlorophenyl)methoxy]-3-methoxyphenyl}-2,7,7-trimethyl-5-oxo-1,4,6,7,8-pentahydroquinoline-3-carboxylate]
[1]; [3]
  activity at 5 µM: 97.1%
[2]; [4]
  activity at 5 µM: 28.3%

## COC(=O)C1=C(C)NC(SCC(=O)c2cccs2)=C(C#N)C1c1ccc2c(c1)OCCO2 (stereo not drawn) [ST014052, methyl 4-(2H,3H-benzo[3,4-e]1,4-dioxan-6-yl)-5-cyano-2-methyl-6-(2-oxo-2-(2-thienyl)ethylthio)-1,4-dihydropyridine-3-carboxylate]
[1]
  Aβ1-42 (% of control): 74.69 % of control
[2]
  Aβ1-40 (% of control): 49 % of control

## CC1=C(C(=O)Nc2ccccc2)C(c2ccsc2)C(C#N)=C(SCC(=O)N2CCCCCCCCCCC2)N1 (stereo not drawn) [RI_33]
[1]
  Aβ1-42 (% of control): 13.7 % of control
[2]
  Aβ1-40 (% of control): 11.9 % of control

## CC1=C(C(=O)OCC(C)C)C(c2ccc(Cl)cc2)C2=C(CC(c3ccc(Cl)cc3)CC2=O)N1 (stereo not drawn) [ST017070, 2-methylpropyl 4,7-bis(4-chlorophenyl)-2-methyl-5-oxo-1,4,6,7,8-pentahydroquinoline-3-carboxylate]
[1]; [3]
  activity at 5 µM: 89.1%
[2]; [4]
  activity at 5 µM: 55.4%

## CCOC(=O)C1=C(C)NC2=C(C(=O)CC(c3ccccc3)C2)C1c1ccccn1 (stereo not drawn) [ST017251, ethyl 2-methyl-5-oxo-7-phenyl-4-(2-pyridyl)-1,4,6,7,8-pentahydroquinoline-3-carboxylate]
[1]; [3]
  activity at 5 µM: 34.3%
[2]; [4]
  activity at 5 µM: 90.4%

## COC(=O)C1=C(C)NC2=C(C(=O)CC(c3cccs3)C2)C1c1ccc(C(F)(F)F)cc1 (stereo not drawn) [ST052493, methyl 2-methyl-5-oxo-7-(2-thienyl)-4-[4-(trifluoromethyl)phenyl]-1,4,6,7,8-pentahydroquinoline-3-carboxylate]
[1]; [3]
  activity at 5 µM: 57.1%
[2]; [4]
  activity at 5 µM: 39.9%
